Results published in PMC12910498 (ACS pharmacology & translational science, 2026).
Values joined by “and” are separate entries in the source; they are usually repeats but may differ in a detail not shown here. Equal values may be shown once. Read-outs that look alike come from different tables or passages of the source.

Assays:
[1] = Phase I metabolic stability in rat liver microsomes (with NADPH); type: in vitro ADME; conditions: pH 7.4, presence of NADPH, mean ± SD, n = 3
Description: (§1) We evaluated the Phase I metabolic stability of compounds 2−7 and 14−19 using rat and human liver microsomes, as previously described.[45]
(§2) Phase I metabolic stability assays were conducted using rat and human liver microsomes as previously described[45],[70] with minor modifications. In brief, the reactions were carried out with 100 mM potassium phosphate buffer, pH 7.4, in the presence of NADPH regenerating system (1.3 mM NADPH, 3.3 mM glucose 6-phosphate, 3.3 mM MgCl2, 0.4 U/mL glucose-6-phosphate dehydrogenase, 50 μM sodium citrate). Negative controls without cofactors were assessed to determine the non-CYP-mediated metabolism. Compound disappearance was monitored over time using a liquid chromatography and tandem mass spectrometry (LC/MS) method. All reactions were performed in triplicate.
(§3) Chromatographic analysis was performed on a Dionex ultra high-performance LC system coupled with Q Exactive Focus orbitrap mass spectrometer (Thermo Fisher Scientific Inc., Waltham MA). Separation was achieved using Agilent Eclipse Plus column (100 × 2.1 mm^2 i.d.; maintained at 35 °C) packed with a 1.8 μm C18 stationary phase. […] The total run time for each analyte was 6.5 min. Pumps were operated at a flow rate of 0.3 mL/min. The mass spectrometer controlled by Xcalibur software 4.0.27.13 (Thermo Scientific) was operated with a HESI ion source in positive ionization mode. Compounds were identified in the full-scan mode (from m/z 50 to 750) by comparing t = 0 samples with t = 30 min and t = 60 min samples.

[2] = Phase I metabolic stability in human liver microsomes (with NADPH); type: in vitro ADME; conditions: pH 7.4, presence of NADPH, mean ± SD, n = 3
Description: as §1, §2, §3

[3] = molecular target: T1, human D3R (Homo sapiens, UniProt P35462); design: host or cells: CHO-K1; method as in PMID 30883109; conditions: previously reported, cited from earlier work
T1 sequence (P35462 whole entry): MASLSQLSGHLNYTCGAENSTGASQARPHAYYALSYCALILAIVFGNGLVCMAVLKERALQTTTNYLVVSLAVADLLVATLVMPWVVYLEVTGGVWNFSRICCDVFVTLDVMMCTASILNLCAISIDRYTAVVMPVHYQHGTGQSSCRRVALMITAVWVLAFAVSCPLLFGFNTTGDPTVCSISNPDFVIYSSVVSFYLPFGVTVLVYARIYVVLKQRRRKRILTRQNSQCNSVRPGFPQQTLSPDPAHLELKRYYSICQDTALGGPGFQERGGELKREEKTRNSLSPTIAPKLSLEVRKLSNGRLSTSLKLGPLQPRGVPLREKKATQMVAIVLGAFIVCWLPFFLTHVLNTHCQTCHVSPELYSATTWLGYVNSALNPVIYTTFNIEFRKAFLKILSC

[4] = molecular target: T2, human D4R (Homo sapiens, UniProt P21917); design: host or cells: CHO-K1; method as in PMID 30883109; conditions: previously reported, cited from earlier work; for D4R Emax (%): agonist mode; for D4R Ant. (%): antagonist mode
T2 sequence (P21917 1-419): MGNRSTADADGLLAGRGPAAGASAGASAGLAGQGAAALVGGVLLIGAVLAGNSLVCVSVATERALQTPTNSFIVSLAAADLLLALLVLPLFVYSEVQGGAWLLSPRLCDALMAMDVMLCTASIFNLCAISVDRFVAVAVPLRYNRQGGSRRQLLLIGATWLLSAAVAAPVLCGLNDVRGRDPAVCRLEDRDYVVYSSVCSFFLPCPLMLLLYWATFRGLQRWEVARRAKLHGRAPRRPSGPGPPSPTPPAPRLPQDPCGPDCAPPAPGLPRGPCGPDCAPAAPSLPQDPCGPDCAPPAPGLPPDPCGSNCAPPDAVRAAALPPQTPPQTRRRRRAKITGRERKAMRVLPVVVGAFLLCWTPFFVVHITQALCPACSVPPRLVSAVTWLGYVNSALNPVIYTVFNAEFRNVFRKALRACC

[5] = molecular target: T1, human D3R; design: expressed in transfected cells; host or cells: HEK293; method as in PMID 30883109; conditions: HEK293 membranes, hD3R; previously reported; read-out: Ki (nM) ± SEM [3H]N-methlyspiperone D3R; cited from earlier work
[6] = molecular target: T2, human D4R; conditions: for D4R Ant. (%): cAMP, antagonist mode, 10 μM forskolin and 10 nM dopamine, normalized to spiperone; for Emax: read-out: D4R Emax (%)
[7] = molecular target: human D2R long isoform (Homo sapiens, UniProt P14416); design: host or cells: CHO-K1; method as in PMID 30883109; conditions: antagonist mode; previously reported; cited from earlier work
Sequence of human D2R long isoform (P14416 whole entry, canonical isoform): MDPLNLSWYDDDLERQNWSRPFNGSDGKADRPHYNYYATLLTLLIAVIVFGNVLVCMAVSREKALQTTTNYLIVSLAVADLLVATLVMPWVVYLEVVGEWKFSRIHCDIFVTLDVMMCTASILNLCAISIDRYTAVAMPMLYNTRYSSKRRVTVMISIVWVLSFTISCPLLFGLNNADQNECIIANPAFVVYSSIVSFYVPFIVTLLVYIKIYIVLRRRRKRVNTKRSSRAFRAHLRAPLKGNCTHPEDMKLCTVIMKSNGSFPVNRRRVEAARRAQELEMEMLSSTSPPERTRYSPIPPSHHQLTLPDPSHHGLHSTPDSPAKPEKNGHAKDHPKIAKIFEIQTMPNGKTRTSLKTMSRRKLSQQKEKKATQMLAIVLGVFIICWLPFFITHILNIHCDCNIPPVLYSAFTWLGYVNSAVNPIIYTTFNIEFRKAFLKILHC

[8] = Non-Phase I metabolic stability in human liver microsomes (absence of NADPH); type: in vitro ADME
Description: We also evaluated the non-Phase I metabolic stability of compounds 2−7 and 14−19 using rat and human liver microsomes. […] This may represent metabolism by hydrolases that can specifically attack the amide. Evidence in support of this hypothesis is shown by the remarkable stability of all triazole analogs (14−19) in the absence of NADPH in Figure 5B,D.
as §2
Chromatographic analysis was performed on a Dionex ultra high-performance LC system coupled with Q Exactive Focus orbitrap mass spectrometer (Thermo Fisher Scientific Inc., Waltham MA). Separation was achieved using Agilent Eclipse Plus column (100 × 2.1 mm^2 i.d.; maintained at 35 °C) packed with a 1.8 μm C18 stationary phase. […] The total run time for each analyte was 6.5 min. […]

[9] = Pharmacokinetics study in rats (plasma and brain); type: in vivo, Sprague−Dawley rats; conditions: rat, 5 mg/kg IP
Description: Given their adequate in vitro stability profiles, we next evaluated the in vivo pharmacokinetic profiles of 14, 15, 17, and 18 in rats. Sprague−Dawley rats were dosed with 5 mg/kg (14, 15, 17) or 10 mg/kg (18), i.p., and plasma and brain levels of each drug were measured 0−6 h postdose.
All animal experiments were performed following the protocols evaluated and approved by the Animal Care and Use Committee at Johns Hopkins University (Ethics Approval Number: RA24M403). Pharmacokinetic studies in Sprague−Dawley (SD) rats were conducted according to protocols approved. SD rats obtained from Harlan were maintained on a 12 h light−dark cycle with ad libitum access to food and water. Test compound was administered via i.p. injection at a dose of 10 mg/kg (100% saline vehicle, 10 mL/kg volume). The rats were sacrificed at specified time points (0.25, 0.5 h, 1, 2, 4, and 6 h) post drug administration. For the collection of plasma and brain tissue, animals were euthanized with CO2, and blood samples were collected in heparinized microtubes by cardiac puncture. Brains were dissected and immediately flash-frozen (−80 °C). Blood samples were spun at 2000g for 15 min, and plasma was removed and stored at −80 °C until analysis (as described below).
Quantitation of triazole analogs 14, 15, 17, and 18 was performed using liquid chromatography with tandem mass spectrometry (LC/MS-MS) methods. Briefly, calibration standards were prepared using respective tissue (naïve plasma and brain) with additions of the test compounds. For quantifying the test compounds in the pharmacokinetic samples, plasma samples (20 μL) were processed using a single liquid extraction method by addition of 100 μL of acetonitrile containing internal standard (losartan: 0.5 μM), followed by vortex-mixing for 30 s and then centrifugation at 10,000g for 10 min at 4 °C. Brain tissues were diluted 1:5 w/v with acetonitrile containing losartan (0.5 μm) and homogenized, followed by vortex-mixing and centrifugation at 10,000g for 10 min at 4 °C. A 50 μL aliquot of the supernatant was diluted with 50 μL of water and transferred to 250 μL polypropylene autosampler vials sealed with Teflon caps. Two μL of the sample was injected into the LC/MS/MS system for analysis. Chromatographic analysis was performed using an Accela ultra high-performance system consisting of an analytical pump and an autosampler coupled with a TSQ Vantage mass spectrometer. […] The mobile phase consisted of 0.1% formic acid in acetonitrile and 0.1% formic acid in water with gradient elution, starting with 10% organic phase (from 0 to 1 min) linearly increasing to 95% (from 1 to 2 min), and re-equilibrating to 10% by 3 min. The total run time for each analyte was 3.5 min. Pumps were operated at a flow rate of 0.4 mL/min. […] Plasma concentrations (nmol/mL) as well as brain tissue concentrations (nmol/g) were determined and plots of mean plasma concentration versus time were constructed. Noncompartmental analysis modules in Phoenix WinNonlin version 7.0 (Certara USA, Inc., Princeton, NJ) were used to quantify exposures (AUC0−t) and half-life (t1/2).

[10] = molecular target: T3, D1 (Homo sapiens, UniProt P21728); assay: PDSP primary screen and secondary assay, D1; type: binding; conditions: 10 µM compound
T3 construct: Psychoactive Drug Screening Program (PDSP)
T3 sequence (P21728 whole entry): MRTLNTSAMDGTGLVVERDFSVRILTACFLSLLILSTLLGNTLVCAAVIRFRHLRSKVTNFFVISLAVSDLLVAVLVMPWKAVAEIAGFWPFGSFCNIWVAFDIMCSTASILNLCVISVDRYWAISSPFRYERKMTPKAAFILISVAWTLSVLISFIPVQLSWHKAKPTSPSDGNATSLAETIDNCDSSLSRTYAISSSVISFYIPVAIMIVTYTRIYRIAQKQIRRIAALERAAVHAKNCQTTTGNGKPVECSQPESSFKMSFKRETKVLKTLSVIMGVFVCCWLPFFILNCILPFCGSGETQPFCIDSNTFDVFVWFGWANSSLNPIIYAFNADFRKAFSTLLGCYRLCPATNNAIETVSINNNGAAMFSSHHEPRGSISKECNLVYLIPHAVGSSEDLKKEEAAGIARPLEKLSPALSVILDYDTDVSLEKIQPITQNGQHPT
Text: (§4) Receptor Primary Secondary Primary Secondary Primary Secondary Primary Secondary screen assay screen assay screen assay screen assay […]
(§5) inhibition in primary assessment.

[11] = molecular target: T4, D5 (Homo sapiens, UniProt P21918); assay: PDSP primary screen, D5; type: binding; conditions: 10 µM compound
T4 construct: Psychoactive Drug Screening Program (PDSP)
T4 sequence (P21918 whole entry): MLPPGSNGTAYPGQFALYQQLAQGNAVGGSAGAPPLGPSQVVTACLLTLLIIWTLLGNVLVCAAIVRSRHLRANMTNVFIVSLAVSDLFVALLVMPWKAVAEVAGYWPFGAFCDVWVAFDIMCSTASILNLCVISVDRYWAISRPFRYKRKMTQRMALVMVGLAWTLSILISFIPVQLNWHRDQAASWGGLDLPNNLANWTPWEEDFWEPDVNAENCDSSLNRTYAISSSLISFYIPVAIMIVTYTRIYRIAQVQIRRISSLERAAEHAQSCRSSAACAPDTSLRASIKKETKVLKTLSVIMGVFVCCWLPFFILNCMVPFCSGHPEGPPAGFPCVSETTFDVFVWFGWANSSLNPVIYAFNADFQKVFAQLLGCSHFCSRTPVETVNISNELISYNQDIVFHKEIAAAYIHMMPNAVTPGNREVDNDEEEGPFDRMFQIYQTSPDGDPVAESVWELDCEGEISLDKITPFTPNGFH
Text: as §4, §5

[12] = molecular target: human D2LR (Homo sapiens, UniProt P14416); assay: biochemical
Sequence of human D2LR (P14416 whole entry): as the sequence (P14416 whole entry, canonical isoform) above

[13] = molecular target: T1, human D3R; assay: biochemical
[14] = molecular target: T2, human D4R; assay: DiscoverX PathHunter β-arrestin recruitment assay, D4R
[15] = molecular target: T2, human D4R; assay: [3H]N-methylspiperone radioligand competition binding, hD4R membranes

| SMILES | half-life [1] [min] | half-life [2] [min] | D3R Emax (%) ([3]; agonist mode) | IC50 ([3]; antagonist mode) [nM] | D4R Emax (%) [4] [%] | D4R Ant. (%) [4] | Ki [5] [nM] | EC50 [6] [nM] | D4R Ant. (%) [6] [%] | Emax [6] [%] | D2R Ant (%) [7] [%] | IC50 [6] [nM] | also measured |
| --- | --- | --- | --- | --- | --- | --- | --- | --- | --- | --- | --- | --- | --- |
| Cc1cccc(NC(=O)CN2CCN(c3ncccn3)CC2)c1 [Compound 4] | 26.83 ± 0.21 | 39.8 ± 2.16 | 58.4 ± 6.6 | > 100000 | 24.7 ± 5 | 80.6 ± 3.0% | > 10000 | 7.93 ± 2.12 | 29 ± 5 | 60 ± 4 | – | – | – |
| Cc1cccc(NC(=O)CN2CCN(c3ccc(Cl)cn3)CC2)c1 [Compound 7] | 9.51 ± 0.12 | 74.2 ± 4.56 | – | – | – | – | > 50000 | – | 110 ± 7 | – | 100 ± 0 | 2870 ± 817 | – |
| Cc1cccc(NC(=O)CN2CCC(c3ccccc3)CC2)c1 [Compound 5] | 1.99 ± 2.82 | 10.8 ± 0.57 | – | – | 14 ± 0.3 | 93% and 93.3 ± 1.8% | – | 7.54 ± 2.21 | 47 ± 1 | 42 ± 8 | 99.7 ± 0.3 | 42.4 ± 10.6 | – |
| Cc1cccc(NC(=O)CN2CCN(c3ccccn3)CC2)c1 [Compound 2] | 9.92 ± 0.18 | 67 ± 2.41 | 49.4 ± 2.0 | > 100000 | 30.7 ± 6.4 | 78.9 ± 3.1% | > 10000 | 2.92 ± 0.15 | 16 ± 1 | 65 ± 3 | – | – | – |
| Cc1cccc(NC(=O)CN2CCC(c3ccccn3)CC2)c1 [Compound 1, reference compound] | – | – | – | > 100000 | 22.5 ± 4.0 | 81.7 ± 2.7% | – | – | – | – | 94.8 ± 2.8 | – | EC50 ([3]; agonist mode): > 100000 nM |
| CCc1cccc(NC(=O)CN2CCN(c3ccccn3)CC2)c1 [Compound 3] | 20.8 ± 1.99 | 249 ± 66.5 | 44.7 ± 5.9 | – | 26.2 ± 5.1 | 59.7 ± 4.6% | – | 5.38 ± 1.08 | 30 ± 1 | 59 ± 4 | – | 267 ± 115 | non-Phase I metabolic stability [8]: nonexistent; D3R Ant. (%) ([3]; antagonist mode): 100 ± 0% |
| Cc1cccc(-n2cc(CN3CCN(c4ccc(Cl)cn4)CC3)nn2)c1 [Compound 17, 1-(5-Chloropyridin-2-yl)-4-((1-(m-tolyl)-1H-1,2,3-triazol-4-yl)methyl)piperazine] | 64.8 ± 2.12 | 46.8 ± 6.69 | – | – | – | – | – | – | 85 ± 1 | – | – | 134 ± 36.4 | Kp ([9]; Sprague-Dawley, brain and plasma, ip, 5 mg/kg, AUC brain/plasma, read-out: brain: Plasma ratio): 0.3; half-life ([9]; Sprague-Dawley, brain, ip, 5 mg/kg, brain, read-out: half-life (h) brain (converted)): 2.36 h; half-life ([9]; Sprague-Dawley, plasma and brain, ip, 5 mg/kg, tissue not specified, read-out: half-life (converted)): ≥ 2.1 h; half-life ([9]; Sprague-Dawley, plasma, ip, 5 mg/kg, plasma, read-out: half-life (h) plasma (converted)): 2.1 h; Tmax ([9]; Sprague-Dawley, brain, read-out: Tmax (h) brain): 0.25 h; AUC ([9]; Sprague-Dawley, plasma): 15.1 ± 1.83 µM·h; Cmax ([9]; Sprague-Dawley, plasma): 10 ± 1.27 µM; Tmax ([9]; Sprague-Dawley, plasma, read-out: Tmax (h) plasma): 0.25 h; AUC brain ([9]; brain): 4.57 ± 0.50 nmol·h/g; Cmax brain ([9]; brain): 3.04 ± 0.45 nmol/g; peak in vivo brain concentrations expected ([9]; from brain Cmax): greater than 3.0 μM; inhibition at 10 µM [10]: 16.7%; inhibition at 10 µM [11]: 6.22%; Ki [12]: > 100000 nM; Ki [13]: > 100000 nM; IC50 [14]: 3800 ± 720 nM; D4R Ant. (%) ([14]; antagonist mode, EC80 dopamine (1 μM), normalized to spiperone): 91.6 ± 4.7%; Ki [15]: 77.7 ± 19.9 nM; Selectivity D2R/D4R ([15]; ratio of Ki values): >1287; Selectivity D3R/D4R ([15]; ratio of Ki values): >1287 |
